Source: patent publication US11666558B2, “Methods of treating intraocular pressure with activators of Tie-2” (EyePoint Pharmaceuticals, Inc., priority 2015, dated 2023)
Read-outs that look alike come from different tables or passages of the source.

Experiment: Ocular tissue concentrations (aqueous humor, vitreous humor, iris, retina, choroid, cornea) after topical ocular, subcutaneous and intravitreal administration
Format: in vivo, New Zealand White rabbits
Settings: for concentration at 0.5 h / concentration at 0.5 hr / concentration at 1 h / concentration at 2 h / concentration at 4 h: subcutaneous, 5 mg/kg/dose; for Cornea Conc. (ng/mL) OS: TABLE 16: Cornea homogenate
Experimental: To measure the concentration of Compound 1 in plasma and ocular tissues following topical ocular, subcutaneous, and intravitreal administration, New Zealand White rabbits were administered Compound 1, and plasma and ocular samples were collected at pre-determined time points. Compound 1 formulations were prepared fresh on each day of dosing.
Ocular tissue samples from both eyes of each animal were collected and weights were recorded. Plasma and ocular tissue sample concentrations of Compound 1 were determined by LC-MS/MS.
New Zealand White rabbits weighing 2.5 to 3.5 kg were used on this study. Rabbits were housed one per cage. Animals were not fasted and only healthy animals with no ocular illness were used. Two rabbits per group were sacrificed at each of four ocular tissue sampling time points for a total of eight rabbits per group.
Animals were anesthetized for ocular (topical) and intravitreal dosing following the 12IA7 IACUC protocol. Each rabbit received a bolus dose of test formulation either via topical ocular administration 3 times daily on Days 1 and 2 (at 0, 6, and 12 hours), and once on Day 3 (at 0 hours) into both eyes; via intravitreal administration into both eyes once on Day 1 (at 0 hours); or via subcutaneous administration 2 times daily on Days 1 and 2 (at 0 and 8 hours) and once daily on Day 3 (at 0 hours). Doses were given within an approximately 1 hour window each day where applicable.
On Day 1, for intravitreal administration, or on Day 3, for topical ocular and subcutaneous administration, at the appropriate ocular tissue collection time points, animals were euthanized and both eyes were enucleated immediately. Following enucleation, each eye was rinsed with phosphate-buffered saline. Ocular tissue samples from both eyes of each animal were collected at predetermined time points and weights were recorded. All the samples were frozen immediately on dry ice, and stored at −60° C. to −80° C. pending bioanalysis.
An LC-MS/MS method was developed for the determination of Compound 1 in rabbit aqueous tissues (plasma, aqueous and vitreous humor) and solid ocular tissue samples. A pre-study standard curve was analyzed to determine the specificity, range, and lower limit of quantitation of the method. Plasma and tissue homogenate study samples were extracted and analyzed. All the samples were treated identically to the standards.
One eight-point standard curve was used in each analytical batch. To be accepted, each batch must have had at least five of eight standards with accuracy within ±20% of nominal, except at the lower limit of quantification (LLOQ), where ±25% was acceptable.
Concentration versus time data is plotted in FIGS. 3-16. All data are expressed as ng/g of the free drug. Samples that were below the limit of quantitation (0.2 ng/mL) were not used in the calculation of averages.

concentration at 48 h (New Zealand White, rabbit, retina, other: intravitreal, 2.5 mg/eye, Retina, 48 hr, sodium salt, intravitreal 2.5 mg/eye, Group 4, read-out: Retina Avg.): 72600 ng/g | concentration at 72 h (New Zealand White, rabbit, retina, other: intravitreal, 2.5 mg/eye, Retina, OD, sodium salt, intravitreal 2.5 mg/eye, Group 4, read-out: Retina Conc. (ng/g) OD): 8250 ng/g | concentration at 72 h (New Zealand White, rabbit, retina, other: intravitreal, 2.5 mg/eye, Retina, OS, sodium salt, intravitreal 2.5 mg/eye, Group 4, read-out: Retina Conc. (ng/g) OS): 4070 ng/g | concentration at 72 h (New Zealand White, rabbit, retina, other: intravitreal, 2.5 mg/eye, Retina, average, intravitreal 2.5 mg/eye (group 5), read-out: Avg.): 109000 ng/g | concentration at 72 h (New Zealand White, rabbit, retina, other: intravitreal, 2.5 mg/eye, Retina, left eye, intravitreal 2.5 mg/eye (group 5), individual animals, read-out: Conc. (ng/g) OS): 119000 ng/g | concentration at 72 h (New Zealand White, rabbit, retina, other: intravitreal, 2.5 mg/eye, Retina, right eye, intravitreal 2.5 mg/eye (group 5), individual animals, read-out: Conc. (ng/g) OD): 109000 ng/g | concentration at 72 h (New Zealand White, rabbit, retina, other: intravitreal, 2.5 mg/eye, Retina, sodium salt, intravitreal 2.5 mg/eye, Group 4, read-out: Retina Avg.): 6060 ng/g | concentration at 0.5 h (New Zealand White, rabbit, retina, Retina, OD, sodium salt, subcutaneous 5 mg/kg/dose, Group 2, read-out: Retina Conc. (ng/g) OD): 30.5 ng/g | concentration at 0.5 hr (New Zealand White, rabbit, retina, Retina, OS, sodium salt, subcutaneous 5 mg/kg/dose, Group 2, read-out: Retina Conc. (ng/g) OS): 48 ng/g | concentration at 0.5 h (New Zealand White, rabbit, retina, Retina, free acid, subcutaneous 5 mg/kg/dose, Group 3, read-out: Retina Average): 38.7 ng/g | concentration at 0.5 hr (New Zealand White, rabbit, retina, Retina, sodium salt, subcutaneous 5 mg/kg/dose, Group 2, read-out: Retina Average): 40.5 ng/g | concentration at 1 h (New Zealand White, rabbit, retina, Retina, 1 hr, OD, free acid, subcutaneous 5 mg/kg/dose, Group 3, read-out: Retina Conc. (ng/g) OD): 10.4 ng/g | concentration at 1 h (New Zealand White, rabbit, retina, Retina, 1 hr, OD, sodium salt, subcutaneous 5 mg/kg/dose, Group 2, read-out: Retina Conc. (ng/g) OD): 22.4 ng/g | concentration at 1 h (New Zealand White, rabbit, retina, Retina, 1 hr, OS, free acid, subcutaneous 5 mg/kg/dose, Group 3, read-out: Retina Conc. (ng/g) OS): 6.93 ng/g | concentration at 1 h (New Zealand White, rabbit, retina, Retina, 1 hr, OS, sodium salt, subcutaneous 5 mg/kg/dose, Group 2, read-out: Retina Conc. (ng/g) OS): 43.2 ng/g | concentration at 1 h (New Zealand White, rabbit, retina, Retina, 1 hr, free acid, subcutaneous 5 mg/kg/dose, Group 3, read-out: Retina Average): 10.2 ng/g | concentration at 1 h (New Zealand White, rabbit, retina, Retina, 1 hr, sodium salt, subcutaneous 5 mg/kg/dose, Group 2, read-out: Retina Average): 32.6 ng/g | concentration at 2 h (New Zealand White, rabbit, retina, Retina, 2 hr, OD, free acid, subcutaneous 5 mg/kg/dose, Group 3, read-out: Retina Conc. (ng/g) OD): 6.31 ng/g | concentration at 2 h (New Zealand White, rabbit, retina, Retina, 2 hr, OD, sodium salt, subcutaneous 5 mg/kg/dose, Group 2, read-out: Retina Conc. (ng/g) OD): 15 ng/g | concentration at 2 h (New Zealand White, rabbit, retina, Retina, 2 hr, OS, free acid, subcutaneous 5 mg/kg/dose, Group 3, read-out: Retina Conc. (ng/g) OS): 6.93 ng/g | concentration at 2 h (New Zealand White, rabbit, retina, Retina, 2 hr, OS, sodium salt, subcutaneous 5 mg/kg/dose, Group 2, read-out: Retina Conc. (ng/g) OS): 17.8 ng/g | concentration at 2 h (New Zealand White, rabbit, retina, Retina, 2 hr, free acid, subcutaneous 5 mg/kg/dose, Group 3, read-out: Retina Average): 10.5 ng/g | concentration at 2 h (New Zealand White, rabbit, retina, Retina, 2 hr, sodium salt, subcutaneous 5 mg/kg/dose, Group 2, read-out: Retina Average): 16.4 ng/g | concentration at 4 h (New Zealand White, rabbit, retina, Retina, 4 hr, OD, sodium salt, subcutaneous 5 mg/kg/dose, Group 2, read-out: Retina Conc. (ng/g) OD): 19.7 ng/g | concentration at 4 h (New Zealand White, rabbit, retina, Retina, 4 hr, free acid, subcutaneous 5 mg/kg/dose, Group 3, read-out: Retina Average): 35.3 ng/g | concentration at 4 h (New Zealand White, rabbit, retina, Retina, 4 hr, sodium salt, subcutaneous 5 mg/kg/dose, Group 2, read-out: Retina Average): 19.7 ng/g | concentration at 0.5 h (New Zealand White, rabbit, retina, TABLE 16: Retina, free acid, subcutaneous 5 mg/kg/dose, Group 3, read-out: Retina Average): 38.7 ng/g | concentration at 1 h (New Zealand White, rabbit, retina, TABLE 16: Retina, 1 hr, OD, free acid, subcutaneous 5 mg/kg/dose, Group 3, read-out: Retina Conc. (ng/g) OD): 10.4 ng/g | concentration at 1 h (New Zealand White, rabbit, retina, TABLE 16: Retina, 1 hr, OS, free acid, subcutaneous 5 mg/kg/dose, Group 3, read-out: Retina Conc. (ng/g) OS): 6.93 ng/g | concentration at 1 h (New Zealand White, rabbit, retina, TABLE 16: Retina, 1 hr, free acid, subcutaneous 5 mg/kg/dose, Group 3, read-out: Retina Average): 10.2 ng/g | concentration at 2 h (New Zealand White, rabbit, retina, TABLE 16: Retina, 2 hr, OD, free acid, subcutaneous 5 mg/kg/dose, Group 3, read-out: Retina Conc. (ng/g) OD): 6.31 ng/g | concentration at 2 h (New Zealand White, rabbit, retina, TABLE 16: Retina, 2 hr, OS, free acid, subcutaneous 5 mg/kg/dose, Group 3, read-out: Retina Conc. (ng/g) OS): 6.93 ng/g | concentration at 2 h (New Zealand White, rabbit, retina, TABLE 16: Retina, 2 hr, free acid, subcutaneous 5 mg/kg/dose, Group 3, read-out: Retina Average): 10.5 ng/g | concentration at 4 h (New Zealand White, rabbit, retina, TABLE 16: Retina, 4 hr, free acid, subcutaneous 5 mg/kg/dose, Group 3, read-out: Retina Average): 35.3 ng/g
SMILES: COC(=O)N[C@@H](Cc1ccccc1)C(=O)N[C@@H](Cc1ccc(NS(=O)(=O)O)cc1)c1csc(-c2cccs2)n1 [Compound 1]
Retina Conc. (ng/mL) OD (Retina homogenate, 4 hr, OD, free acid, subcutaneous 5 mg/kg/dose, Group 3): BLOQ (Below the limit of quantitation (0.5 ng/mL)) | Retina Conc. (ng/mL) OS (Retina homogenate, 4 hr, OS, sodium salt, subcutaneous 5 mg/kg/dose, Group 2): BLOQ (Below the limit of quantitation (0.5 ng/mL)) | Cornea Conc. (ng/mL) OS (1 hr, OS, free acid, subcutaneous 5 mg/kg/dose, Group 3): BLOQ (Below the limit of quantitation (0.5 ng/mL)) | Cornea Conc. (ng/mL) OS (2 hr, OS, free acid, subcutaneous 5 mg/kg/dose, Group 3): BLOQ (Below the limit of quantitation (0.5 ng/mL)) | Retina Conc. (ng/mL) OD (TABLE 16: Retina homogenate, 4 hr, OD, free acid, subcutaneous 5 mg/kg/dose, Group 3): BLOQ (Below the limit of quantitation (0.5 ng/mL)) | rank order of exposure in aqueous and vitreous humor by route (intravitreal, topical ocular, subcutaneous administration): intravitreal>>topical ocular>subcutaneous administration
